Source: PubChem BioAssay (NCI)
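Cultured in 96-well plates, cells were exposed to test compound for 48 hours across five concentrations. TGI is the concentration that stops growth completely.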

Legend:
Experiment in all cases: NCI-60 cell line screen, 48 h
[1] = system: OVCAR-5 ovarian
[2] = system: MCF7 breast
[3] = system: NCI-H23 lung
[4] = system: MDA-MB-231 breast
[5] = system: SW-620 colon
[6] = system: COLO 205 colon
[7] = system: SN12C renal
[8] = system: HOP-92 NSCLC
[9] = system: OVCAR-8 ovarian
[10] = system: EKVX NSCLC
[11] = system: CAKI-1 renal
[12] = system: RPMI-8226 leukemia
[13] = system: SK-MEL-5 melanoma
[14] = system: SK-MEL-28 melanoma
[15] = system: HCT-116 colon
[16] = system: SF-539 CNS
[17] = system: NCI/ADR-RES ovarian
[18] = system: SF-295 CNS
[19] = system: OVCAR-3 ovarian
[20] = system: HT29 colon
[21] = system: MDA-N
[22] = system: IGROV1 ovarian
[23] = system: 786-0 renal
[24] = system: U251 CNS
[25] = system: SNB-75 CNS
[26] = system: K-562 leukemia
[27] = system: ACHN renal
[28] = system: NCI-H226 lung
[29] = system: SK-MEL-2 melanoma
[30] = system: CCRF-CEM leukemia
[31] = system: NCI-H522 lung
[32] = system: T-47D breast
[33] = system: A549 NSCLC
[34] = system: NCI-H460 lung
[35] = system: MALME-3M melanoma
[36] = system: DU-145 prostate
[37] = system: SF-268 CNS
[38] = system: SK-OV-3 ovarian
[39] = system: UACC-257 melanoma
[40] = system: M14 melanoma
[41] = system: HCC-2998 colon
[42] = system: OVCAR-4 ovarian
[43] = system: A498 renal
[44] = system: UACC-62 melanoma
[45] = system: HCT-15 colon
[46] = system: SNB-19 CNS
[47] = system: PC-3 prostate
[48] = system: HS 578T breast
[49] = system: MOLT-4 leukemia
[50] = system: BT-549 breast
[51] = system: KM12 colon
[52] = system: LOX IMVI melanoma
[53] = system: UO-31 renal
[54] = system: TK-10 renal
[55] = system: HL-60(TB) leukemia
[56] = system: MDA-MB-435
[57] = system: RXF 393 renal
[58] = system: SR leukemia
[59] = system: HOP-62 NSCLC

CCCC[C@H]1CCN2C[C@@H](O)[C@@H](O)[C@H]2[C@@H]1O
TGI [1]: > 100 µM
TGI [2]: > 100 µM
TGI [3]: > 100 µM
TGI [4]: > 100 µM
TGI [5]: > 100 µM
TGI [6]: > 100 µM
TGI [7]: > 100 µM
TGI [8]: > 100 µM
TGI [9]: > 100 µM
TGI [10]: > 100 µM
TGI [11]: > 100 µM
TGI [12]: > 100 µM
TGI [13]: > 100 µM
TGI [14]: > 100 µM
TGI [15]: > 100 µM
TGI [16]: > 100 µM
TGI [17]: > 100 µM
TGI [18]: > 100 µM
TGI [19]: > 100 µM
TGI [20]: > 100 µM
TGI [21]: > 100 µM
TGI [22]: > 100 µM
TGI [23]: > 100 µM
TGI [24]: > 100 µM
TGI [25]: > 100 µM
TGI [26]: > 100 µM
TGI [27]: > 100 µM
TGI [28]: > 100 µM
TGI [29]: > 100 µM
TGI [30]: > 100 µM
TGI [31]: > 100 µM
TGI [32]: > 100 µM
TGI [33]: > 100 µM
TGI [34]: > 100 µM
TGI [35]: > 100 µM
TGI [36]: > 100 µM
TGI [37]: > 100 µM
TGI [38]: > 100 µM
TGI [39]: > 100 µM
TGI [40]: > 100 µM
TGI [41]: > 100 µM
TGI [42]: > 100 µM
TGI [43]: > 100 µM
TGI [44]: > 100 µM
TGI [45]: > 100 µM
TGI [46]: > 100 µM
TGI [47]: > 100 µM
TGI [48]: > 100 µM
TGI [49]: > 100 µM
TGI [50]: > 100 µM
TGI [51]: > 100 µM
TGI [52]: > 100 µM
TGI [53]: > 100 µM
TGI [54]: > 100 µM
TGI [55]: > 100 µM
TGI [56]: > 100 µM

CC[C@@H]1/C=C/C=C/C[C@H](C)[C@@H](O)[C@](C)(O)C(=O)[C@H](C)[C@@H](O)[C@H](C)C(=O)[C@H](C)[C@@H](O)[C@H](C)/C=C/C(=O)O[C@H]2[C@@H](C)[C@@H](CC1)O[C@@]1(CC[C@@H](C)[C@@H](CC(C)O)O1)[C@@H]2C (stereo partly drawn)
TGI [1]: 7.38 µM
TGI [2]: 7.08 µM
TGI [3]: 7.94 µM
TGI [4]: 6.65 µM
TGI [5]: > 42 µM
TGI [6]: 1.99 µM
TGI [7]: 4.95 µM
TGI [8]: 6.11 µM
TGI [9]: 8.85 µM
TGI [10]: 10.8 µM
TGI [11]: 12.7 µM
TGI [12]: 10.3 µM
TGI [13]: 1.7 µM
TGI [14]: 25.3 µM
TGI [15]: 3.11 µM
TGI [16]: 10.3 µM
TGI [17]: 5.48 µM
TGI [18]: 9.05 µM
TGI [19]: 3.95 µM
TGI [20]: 4.19 µM
TGI [21]: 6.72 µM
TGI [57]: 4.06 µM
TGI [22]: 5.96 µM
TGI [23]: 4.45 µM
TGI [24]: 11.1 µM
TGI [25]: 9.11 µM
TGI [26]: > 38.2 µM
TGI [58]: 13 µM
TGI [27]: 8.69 µM
TGI [29]: 8.4 µM
TGI [30]: 6.05 µM
TGI [31]: 3.89 µM
TGI [59]: 5.47 µM
TGI [33]: 9.1 µM
TGI [34]: 4.25 µM
TGI [35]: 15.6 µM
TGI [36]: 6.76 µM
TGI [37]: 12.7 µM
TGI [38]: 14.5 µM
TGI [39]: 3.09 µM
TGI [40]: 6.52 µM
TGI [41]: 6.68 µM
TGI [42]: 9.33 µM
TGI [43]: 9.12 µM
TGI [44]: 6.57 µM
TGI [45]: 11.3 µM
TGI [46]: 19.8 µM
TGI [47]: 5.05 µM
TGI [48]: > 25.1 µM
TGI [49]: 6.26 µM
TGI [50]: 4.94 µM
TGI [51]: 11.7 µM
TGI [52]: 4.32 µM
TGI [53]: 12.3 µM
TGI [54]: 12.3 µM
TGI [55]: 4.25 µM
TGI [56]: 6.89 µM
